Laboratory results published in patent US12098145B2 (Libra Therapeutics, Inc., priority 2022, dated 2024).

Molecular target: T1, TRPML1 (Homo sapiens, UniProt Q9GZU1)
T1 construct: expressed in transfected cells; host or cells: HEK T-REx cells stably expressing GCaMP6f and TRPML1
Test: Cellular TRPML1 assay (FLIPR, GCaMP6f calcium read-out)
Assay type: cell-based
Conditions: HEKT-REx/GCaMP6f/TRPML1 cells, FLIPR TETRA, kinetic response over 300 seconds; read-out: TRPML1 FLIPR pEC50 (converted)
Protocol: Example A: Cellular TRPML1 Assay
The final clone for the TRPML1 assay is HEKT-REx/GCaMP6f/TRPML1. GCaMP6f is a genetically encoded calcium indicator that is stably expressed in this cell line and used as a fluorescent read-out.
Experiments were performed in 384 MTP format. Cells are seeded at 15000 cells/well in 20 μl/well of Optimem+0.5% FBS without selection antibiotics. Twenty-four hours later, cells are assayed for the response to various compounds using the Ca^2+ sensitive GCaMP6f protein stably expressed in the cells as readout.
The experiment was performed in a 384-well format according to the following procedures: • 24 h after seeding, the cells were pre-incubated at room temperature for about 10 min. • Started the experiment at the FLIPR^TETRA by injecting 10 μL/w of 3× concentrated test compounds and controls in Ca^2+ free Tyrode's buffer. Monitored the kinetic response over a period of 300 seconds. • Final DMSO concentration: 0.5%
Data from FLIPR^TETRA measurements were analyzed with the Genedata Screener© software.

T1 sequence (Q9GZU1 whole entry): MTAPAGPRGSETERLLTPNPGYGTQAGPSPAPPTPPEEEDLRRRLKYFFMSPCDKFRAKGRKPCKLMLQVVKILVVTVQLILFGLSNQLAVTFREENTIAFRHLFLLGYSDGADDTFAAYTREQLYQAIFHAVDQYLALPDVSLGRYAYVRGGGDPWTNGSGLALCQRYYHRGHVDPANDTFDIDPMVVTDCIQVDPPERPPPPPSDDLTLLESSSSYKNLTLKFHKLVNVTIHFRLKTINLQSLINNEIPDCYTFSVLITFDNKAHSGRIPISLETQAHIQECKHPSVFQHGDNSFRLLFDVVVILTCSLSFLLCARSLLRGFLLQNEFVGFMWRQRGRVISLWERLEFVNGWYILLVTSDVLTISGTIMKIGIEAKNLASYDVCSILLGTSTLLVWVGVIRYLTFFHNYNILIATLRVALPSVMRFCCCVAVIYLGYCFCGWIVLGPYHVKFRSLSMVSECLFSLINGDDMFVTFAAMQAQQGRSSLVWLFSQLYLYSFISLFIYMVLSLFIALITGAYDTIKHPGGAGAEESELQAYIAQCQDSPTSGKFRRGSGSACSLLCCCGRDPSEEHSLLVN

| EC50 [nM] | SMILES |
| --- | --- |
| 10 to 1000 | O=C(Nc1ccc(OC2CCCC2(F)F)c(F)c1)c1nc(N2CC(C(F)(F)F)C2)oc1CC(F)(F)F (centres unmarked) [Example 18, N-(4-((2,2-difluorocyclopentyl)oxy)-3-fluorophenyl)-5-(2,2,2-trifluoroethyl)-2-(3-(trifluoromethyl)azetidin-1-yl)oxazole-4-carboxamide] |
| 10 to 1000 | O=C(Nc1ccc(OC2CCCC2(F)F)c(F)c1)c1nc(N2CC3CCCC3C2)oc1CC(F)(F)F (centres unmarked) [Example 23, N-(4-((2,2-difluorocyclopentyl)oxy)-3-fluorophenyl)-2-(hexahydrocyclopenta[c]pyrrol-2(1H)-yl)-5-(2,2,2-trifluoroethyl)oxazole-4-carboxamide] |
| 1000 to 10000 | CC(C)OC1CN(c2nc(C(=O)Nc3ccc(OC4CCCC4(F)F)c(F)c3)c(CC(F)(F)F)o2)C1 (centres unmarked) [Example 24, N-{4-[(2,2-difluorocyclopentyl)oxy]-3-fluorophenyl}-2-[3-(propan-2-yloxy)azetidin-1-yl]-5-(2,2,2-trifluoroethyl)oxazole-4-carboxamide] |
| 10000 to 100000 | O=C(Nc1ccc(N2CCCCC2)c(F)c1)c1nc(N2CCC3(CC2)CS(=O)(=O)C3)oc1CC(F)(F)F [Example 25, 2-(2,2-dioxo-2-thia-7-azaspiro[3.5]nonan-7-yl)-N-[3-fluoro-4-(piperidin-1-yl)phenyl]-5-(2,2,2-trifluoroethyl) oxazole-4-carboxamide] |
| 1000 to 10000 | O=C(Nc1ccc(N2CCCCC2)c(F)c1)c1nc(N2C[C@H]3CCO[C@H]3C2)oc1CC(F)(F)F [Example 26, 2-[(3aR,6aR)-hexahydro-5H-furo[2,3-c]pyrrol-5-yl]-N-[3-fluoro-4-(piperidin-1-yl)phenyl]-5-(2,2,2-trifluoroethyl)oxazole-4-carboxamide] |
| 1000 to 10000 | O=C(Nc1ccc(N2CCCCC2)c(F)c1)c1nc(N2CCC3(CC3)C2)oc1CC(F)(F)F [Example 27, 2-{5-azaspiro[2.4]heptan-5-yl}-N-[3-fluoro-4-(piperidin-1-yl)phenyl]-5-(2,2,2-trifluoroethyl)-1,3-oxazole-4-carboxamide] |
| 1000 to 10000 | CC1CCCN1c1nc(C(=O)Nc2ccc(N3CCCCC3)c(F)c2)c(CC(F)(F)F)o1 (centres unmarked) [Example 29, N-(3-fluoro-4-(piperidin-1-yl)phenyl)-2-(2-methylpyrrolidin-1-yl)-5-(2,2,2-trifluoroethyl)oxazole-4-carboxamide] |
| 10 to 1000 | O=C(Nc1cc(F)c(OC2CC3C[C@H]3C2)c(F)c1)c1nc(N2CC3(C2)CC(F)(F)C3)oc1CC(F)(F)F (stereo partly drawn) [Example 34, N-(4-(cis-bicyclo[3.1.0]hexan-3-yloxy)-3,5-difluorophenyl)-2-(6,6-difluoro-2-azaspiro[3.3]heptan-2-yl)-5-(2,2,2-trifluoroethyl)oxazole-4-carboxamide] |
| 10 to 1000 | O=C(Nc1cc(F)c(OC2CC3C[C@H]3C2)c(F)c1)c1nc(N2CCC3(COC3)C2)oc1CC(F)(F)F (stereo partly drawn) [Example 35, N-(4-{cis-bicyclo[3.1.0]hexan-3-yloxy}-3,5-difluorophenyl)-2-{2-oxa-6-azaspiro[3.4]octan-6-yl}-5-(2,2,2-trifluoroethyl)oxazole-4-carboxamide] |
| 10 to 1000 | CC1(C)CN(c2nc(C(=O)Nc3cc(F)c(OC4CC5C[C@H]5C4)c(F)c3)c(CC(F)(F)F)o2)C1 (stereo partly drawn) [Example 37, N-(4-{cis-bicyclo[3.1.0]hexan-3-yloxy}-3,5-difluorophenyl)-2-(3,3-dimethylazetidin-1-yl)-5-(2,2,2-trifluoroethyl)oxazole-4-carboxamide] |
| 10 to 1000 | O=C(Nc1cc(F)c(OC2CC3C[C@H]3C2)c(F)c1)c1nc(N2CC3CCCC3C2)oc1CC(F)(F)F (stereo partly drawn) [Example 40, N-(4-{cis-bicyclo[3.1.0]hexan-3-yloxy}-3,5-difluorophenyl)-2-{octahydrocyclopenta[c]pyrrol-2-yl}-5-(2,2,2-trifluoroethyl)oxazole-4-carboxamide] |
| 10 to 1000 | O=C(Nc1cc(F)c(OC2CC3C[C@H]3C2)c(F)c1)c1nc(N2CC3(CCCC3)C2)oc1CC(F)(F)F (stereo partly drawn) [Example 41, N-(4-(cis-bicyclo[3.1.0]hexan-3-yloxy)-3,5-difluorophenyl)-2-(2-azaspiro[3.4]octan-2-yl)-5-(2,2,2-trifluoroethyl)oxazole-4-carboxamide] |
| 1000 to 10000 | O=C(Nc1ccc(OCC(F)(F)F)c(F)c1)c1nc(N2CCCC2)oc1CC(F)(F)F [Example 42, N-(3-fluoro-4-(2,2,2-trifluoroethoxy)phenyl)-2-(pyrrolidin-1-yl)-5-(2,2,2-trifluoroethyl)oxazole-4-carboxamide] |
| 1000 to 10000 | COC1CCC(Oc2ccc(NC(=O)c3nc(N4CCCC4)oc3CC(F)(F)F)cc2F)C1 (centres unmarked) [Example 43, N-{3-fluoro-4-[(3-methoxycyclopentyl)oxy]phenyl}-2-(pyrrolidin-1-yl)-5-(2,2,2-trifluoroethyl)oxazole-4-carboxamide] |
| 1000 to 10000 | CC1(C)CC(Oc2ccc(NC(=O)c3nc(N4CCCC4)oc3CC(F)(F)F)cc2F)CO1 (centres unmarked) [Example 45, N-{4-[(5,5-dimethyloxolan-3-yl)oxy]-3-fluorophenyl}-2-(pyrrolidin-1-yl)-5-(2,2,2-trifluoroethyl)oxazole-4-carboxamide] |
| 1000 to 10000 | O=C(Nc1ccc(OC2CC3C(C2)C3(F)F)c(F)c1)c1nc(N2CCCC2)oc1CC(F)(F)F (centres unmarked) [Example 46, N-[4-({6,6-difluorobicyclo[3.1.0]hexan-3-yl}oxy)-3-fluorophenyl]-2-(pyrrolidin-1-yl)-5-(2,2,2-trifluoroethyl)oxazole-4-carboxamide] |
| 1000 to 10000 | O=C(Nc1ccc(O[C@@H]2COCC2(F)F)c(F)c1)c1nc(N2CCCC2)oc1CC(F)(F)F [Example 49, (R)—N-(4-((4,4-difluorotetrahydrofuran-3-yl)oxy)-3-fluorophenyl)-2-(pyrrolidin-1-yl)-5-(2,2,2-trifluoroethyl)oxazole-4-carboxamide] |
| 1000 to 10000 | O=C(Nc1ccc(OC2CCC3CC32)c(F)c1)c1nc(N2CCCC2)oc1CC(F)(F)F (centres unmarked) [Example 51, N-(4-{bicyclo[3.1.0]hexan-2-yloxy}-3-fluorophenyl)-2-(pyrrolidin-1-yl)-5-(2,2,2-trifluoroethyl)oxazole-4-carboxamide] |
| 1000 to 10000 | O=C(Nc1ccc(OC2CCCC23CC3)c(F)c1)c1nc(N2CCCC2)oc1CC(F)(F)F (centres unmarked) [Example 52, N-(3-fluoro-4-(spiro[2.4]heptan-4-yloxy)phenyl)-2-(pyrrolidin-1-yl)-5-(2,2,2-trifluoroethyl)oxazole-4-carboxamide] |
| 1000 to 10000 | O=C(Nc1ccc(OCC2CCCC2(F)F)c(F)c1)c1nc(N2CCCC2)oc1CC(F)(F)F (centres unmarked) [Example 53, N-{4-[(2,2-difluorocyclopentyl)methoxy]-3-fluorophenyl}-2-(pyrrolidin-1-yl)-5-(2,2,2-trifluoroethyl)oxazole-4-carboxamide] |
| 1000 to 10000 | O=C(Nc1ccc(OC2CCOCC2)c(F)c1)c1nc(N2CCCC2)oc1CC(F)(F)F [Example 56, N-[3-fluoro-4-(oxan-4-yloxy)phenyl]-2-(pyrrolidin-1-yl)-5-(2,2,2-trifluoroethyl)oxazole-4-carboxamide] |
| 1000 to 10000 | O=C(Nc1ccc(OC2CCCC2)c(F)c1)c1nc(N2CCC3(CC3)C2)oc1CC(F)(F)F [Example 57, N-(4-(cyclopentyloxy)-3-fluorophenyl)-2-(5-azaspiro[2.4]heptan-5-yl)-5-(2,2,2-trifluoroethyl)oxazole-4-carboxamide] |
| 1000 to 10000 | O=C(Nc1ccc(OCCC(F)(F)F)c(F)c1)c1nc(N2CCCC2)oc1CC(F)(F)F [Example 58, N-(3-fluoro-4-(3,3,3-trifluoropropoxy)phenyl)-2-(pyrrolidin-1-yl)-5-(2,2,2-trifluoroethyl)oxazole-4-carboxamide] |
| 1000 to 10000 | CC(CC(F)(F)F)Oc1ccc(NC(=O)c2nc(N3CCCC3)oc2CC(F)(F)F)cc1F (centres unmarked) [Example 60, N-(3-fluoro-4-((4,4,4-trifluorobutan-2-yl)oxy)phenyl)-2-(pyrrolidin-1-yl)-5-(2,2,2-trifluoroethyl) oxazole-4-carboxamide] |
| 1000 to 10000 | O=C(Nc1ccc(OC2CCCC2)c(F)c1)c1nc(N2C[C@H]3CCO[C@H]3C2)oc1CC(F)(F)F [Example 61, N-(4-(cyclopentyloxy)-3-fluorophenyl)-2-((3aR,6aR)-hexahydro-5H-furo[2,3-c]pyrrol-5-yl)-5-(2,2,2-trifluoroethyl)oxazole-4-carboxamide] |
| 1000 to 10000 | O=C(Nc1ccc(OC2CCCC2)c(F)c1)c1nc(N2CCCC2)oc1CC(F)(F)F [Example 62, N-[4-(cyclopentyloxy)-3-fluorophenyl]-2-(pyrrolidin-1-yl)-5-(2,2,2-trifluoroethyl)oxazole-4-carboxamide] |
| 1000 to 10000 | O=C(Nc1ccc(OC2COCC2(F)F)c(F)c1)c1nc(N2CCC3(CC3)C2)oc1CC(F)(F)F (centres unmarked) [Example 63, N-(4-((4,4-difluorotetrahydrofuran-3-yl)oxy)-3-fluorophenyl)-2-(5-azaspiro[2.4]heptan-5-yl)-5-(2,2,2-trifluoroethyl)oxazole-4-carboxamide] |

| SMILES | EC50 [nM] |
| --- | --- |
| O=C(Nc1ccc(OC2CC(F)(F)C2)c(F)c1)c1nc(N2CCCC2)oc1CC(F)(F)F [Example 44, N-[4-(3,3-difluorocyclobutoxy)-3-fluorophenyl]-2-(pyrrolidin-1-yl)-5-(2,2,2-trifluoroethyl)oxazole-4-carboxamide] | 1000 to 10000 |
| CCC(C)Oc1ccc(NC(=O)c2nc(N3CCCC3)oc2CC(F)(F)F)cc1F (centres unmarked) [Example 59, N-(4-(sec-butoxy)-3-fluorophenyl)-2-(pyrrolidin-1-yl)-5-(2,2,2-trifluoroethyl)oxazole-4-carboxamide] | 1000 to 10000 |
